Experimental data published in patent publication US20050124683A1, “HIV protease inhibitors, compositions containing the same, their pharmaceutical uses and materials for their synthesis” (priority 2003, published 2005).
Where two headings read alike, the source gives them in different places.

Columns and labels:
HIV-1 protease = biological target: T1, HIV-1 protease (Human immunodeficiency virus type 1 group M subtype B, UniProt P04585, Q495S); test: HIV-1 Protease RET assay (Ki, resonance energy transfer); assay type: biochemical; details: Q7S mutant HIV-1 protease; read-out: Ki (nm)
T1 construct: made in house
Protocol: Ki's for the inhibitors of HIV-1 protease were determined using a resonance energy transfer (RET) assay. […] This enzyme is first partially purified as inclusion bodies from cell lysate. It is then solublized in 8M urea and passed through a Q-Sepharose column (Pharmacia) for further purification. To refold this protein, samples containing Q7S is dialyzed into 50 mM sodium phosphate pH 7.0, 50 mM NaCl, 10 mM DTT, and 10% glycerol.
The commercially available peptide substrate (Molecular Probes Cat. # H-2930) RE(EDANS)SQNYPIVQK(DABCYL)R is used to assess activity and Ki's. This peptide is cleaved quantitatively by HIV-1 Pr at the Tyr-Pro bond. The EDANS fluorophore absorbs at 340 nm and emits at 490 nm. The reaction is carried out in a 96 well plate in a total volume of 100 µL and is run for 12 minutes at 37C under steady-state conditions with 5 µM substrate and 2 nM active dimer enzyme concentration. The literature value Km for this substrate and enzyme is 103+/−8 μM (See Matayoshi, et al., “Novel Fluorogenic Substrates for Assaying Retroviral Proteases by Resonance Energy Transfer,” Science 247, 954 (1990)). The buffer for this reaction is 0.1M sodium acetate pH 4.8, 1M NaCl, 1 mM EDTA, 5 mM dithiothreitol, 10% dimethyl sulfoxide and 1 mg/ml bovine serum albumin. Inhibition curves are fit using the Morrison tight binding equation.

HIV-1 = test: Antiviral EC50 in HIV-infected T-cell lines (CPE inhibition / susceptibility assays); assay type: cell-based; details: Human immunodeficiency virus 1, T-cell
Protocol: T-cell lines, CEM-SS, and MT-2, and viruses HIV-1 RF and HIV-1 NL4-3 (pNL4-3) were obtained from the National Institutes of Health (AIDS Research and Reference Reagent Program, Bethesda, MD).
The ability of compounds to protect cells against HIV infection was measured by the […] dye reduction method, essentially as described (See Pauwels, R. Balzarini, J. Baba, M. Snoeck, R. Schols, D. Herdewijn, P. Desmyter, J. and De Clercq, E. 1988, “Rapid and automated tetrazolium-based colorimetric assay for the detection of anti-HIV compounds,”. J Virol. Methods., 20: 309-321 and Weislow, O. S. Kiser, R. Fine, D. L. Bader, J. Shoemaker, R. H. and Boyd, M. R. 1989. “New soluble-formazan assay for HIV-1 cytopathic effects: application to high-flux screening of synthetic and natural products for AIDS-antiviral activity”. J. Natl. Cancer Inst. 81:577-586). Subject cells were infected with test virus at an moi of 0.025 to 0.819 or mock infected with medium only and added at 2×10^4 cells per well into 96 well plates containing half-log dilutions of test compounds. Six days later, 50 μl of XTT (1 mg/ml XTT tetrazolium, […] phenazine methosulfate) was added to the wells and the plate was reincubated for four hours. Viability, as determined by the amount of XTT formazan produced, was quantified spectrophotometrically by absorbance at 450 nm. Data from CPE assays were expressed as the percent of formazan produced in compound-treated cells compared to formazan produced in wells of uninfected, compound-free cells. The fifty percent effective concentration (EC50) was calculated as the concentration of compound that effected an increase in the percentage of formazan production in infected, compound-treated cells to 50% of that produced by uninfected, compound-free cells. The 50% cytotoxicity concentration (CC50) was calculated as the concentration of compound that decreased the percentage of formazan produced in uninfected, compound-treated cells to 50% of that produced in uninfected, compound-free cells. The therapeutic index was calculated by dividing the cytotoxicity (CC50) by the antiviral activity (EC50).
Compounds were tested in phenotypic susceptibility assays at Virologic, Inc., (See Petropoulos C. J., Parkin N. T., Limoli K. L., Lie Y. S., Wrin T., Huang W., Tian H., Smith D., Winslow G. A., Capon D J, Whitcomb J M. 2000, “A novel phenotypic drug susceptibility assay for human immunodeficiency virus type 1,” Antimicrob Agents Chemother 44(4):920-928) or using the assay described here. MT-2 cells were infected with either HIV-1 NL4-3 or HIV-1 NL4-3(I84V/L90M) and incubated in the presence of serial 0.5 log dilutions of test compounds. Three days later, culture supernatants were collected and virus production, as determined by p24 ELISA, was assayed. Percent inhibition was calculated as p24 concentration in compound-treated samples as compared to infected, compound-free controls. Inhibition of viral replication is determined by measuring reduction in HIV p24 present in the culture supernatant, using a Beckman-Coulter p24 HIV-1 Ag EIA kit and following the supplied protocol. Absorbance is read on a MRX microplate reader (Dynex Technologies). The EC50 was calculated as the concentration of compound that effected a decrease in the p24 production by infected, compound-treated cells to 50% of that produced by infected, compound-free cells.

[1] = read-out: EC50 (wt) (nm), wt virus
[2] = read-out: Ave. EC50, average, unit inferred

SMILES | Ki (HIV-1 protease) [nM] | EC50 (HIV-1; [1]) [nM] | EC50 (HIV-1; [2]) [nM]
Cc1ccccc1CNC(=O)[C@H]1N(C(=O)[C@@H](O)[C@H](Cc2cccc(F)c2)NC(=O)c2cccc(O)c2C)CC(F)(F)C1(C)C | < 0.1 | 17 | –
CCCNC(=O)C1N(C(=O)[C@@H](O)[C@H](Cc2ccccc2)NC(=O)c2cc(C)cc(O)c2C)CC(F)(F)C1(C)C (some centres unmarked) | < 0.1 | 9 | –
C=CCNC(=O)[C@H]1N(C(=O)[C@@H](O)[C@H](Cc2ccccc2)NC(=O)c2cccc3c2CCN3)CC(F)(F)C1(C)C | < 0.1 | 16 | –
C=CCNC(=O)[C@H]1N(C(=O)[C@@H](O)[C@H](Cc2cccc(C(F)(F)F)c2)NC(=O)c2cccc(O)c2C)CC(F)(F)C1(C)C | < 0.1 | 42 | –
C=CCNC(=O)[C@H]1N(C(=O)[C@@H](O)[C@H](Cc2cccc(F)c2)NC(=O)c2cc(C)cc(O)c2C)CC(F)(F)C1(C)C | < 0.1 | 25 | –
Cc1cc(O)c(C)c(C(=O)N[C@@H](Cc2cccc(F)c2)[C@H](O)C(=O)N2CC(F)(F)C(C)(C)[C@H]2C(=O)NCc2ccccc2F)c1 | < 0.1 | 6.7 | –
CC[C@@H](COC)NC(=O)[C@H]1N(C(=O)[C@@H](O)[C@H](Cc2ccccc2)NC(=O)c2cc(C)cc(O)c2C)CC(F)(F)C1(C)C | < 0.1 | 30 | –
CCNC(=O)[C@H]1N(C(=O)[C@@H](O)[C@H](Cc2ccccc2)NC(=O)c2c(C)ccc(O)c2C)CC(F)(F)C1(C)C | < 0.1 | 35 | –
CCC(C)NC(=O)[C@H]1N(C(=O)[C@@H](O)[C@H](Cc2ccccc2)NC(=O)c2cccc(O)c2C)CC(F)(F)C1(C)C (some centres unmarked) | < 0.1 | 31 | –
CCC(C)NC(=O)C1N(C(=O)C(O)C(Cc2ccccc2)NC(=O)c2cc(C)cc(O)c2C)CC(F)(F)C1(C)C (centres unmarked) | < 0.1 | 16 | –
Cc1ccc(O)c(C)c1C(=O)N[C@@H](Cc1ccccc1)[C@H](O)C(=O)N1CC(F)(F)C(C)(C)[C@H]1C(=O)NCC(C)C | < 0.1 | 44 | –
CCCNC(=O)[C@H]1N(C(=O)[C@@H](O)[C@H](Cc2ccccc2)NC(=O)c2c(C)ccc(O)c2C)CC(F)(F)C1(C)C | < 0.1 | 33 | –
C=CCNC(=O)[C@H]1N(C(=O)[C@@H](O)[C@H](Cc2cccc(F)c2)NC(=O)c2cccc3c2CCN3)CC(F)(F)C1(C)C | < 0.1 | 35 | –
Cc1cc(O)c(C)c(C(=O)N[C@@H](Cc2ccccc2)[C@H](O)C(=O)N2CC(F)(F)C(C)(C)C2C(=O)NCC(C)C)c1 (some centres unmarked) | < 0.1 | 31 | –
CC(C)CNC(=O)[C@H]1N(C(=O)[C@@H](O)[C@H](Cc2ccccc2)NC(=O)c2cccc3c2CCN3)CC(F)(F)C1(C)C | < 0.1 | 35 | –
Cc1cc(O)c(C)c(C(=O)N[C@@H](Cc2cccc(F)c2)[C@H](O)C(=O)N2CC(F)(F)C(C)(C)C2C(=O)NCC(C)C)c1 (some centres unmarked) | < 0.1 | 11 | –
Cc1c(O)cccc1C(=O)N[C@@H](Cc1cccc(F)c1)[C@H](O)C(=O)N1CC(F)(F)C(C)(C)C1C(=O)NCC(C)C (some centres unmarked) | < 0.1 | 13 | –
CC(C)CNC(=O)[C@H]1N(C(=O)[C@@H](O)[C@H](Cc2cccc(F)c2)NC(=O)c2cccc3c2CCN3)CC(F)(F)C1(C)C | < 0.1 | 42 | –

SMILES | Ki (HIV-1 protease) [nM] | EC50 (HIV-1; [1]) [nM] | EC50 (HIV-1; [2]) [nM]
CCCCNC(=O)[C@H]1N(C(=O)[C@@H](O)[C@H](Cc2cccc(F)c2)NC(=O)c2cccc(O)c2C)CC(F)(F)C1(C)C | < 0.1 | 32 | –
Cc1cc(O)c(C)c(C(=O)N[C@@H](Cc2cccc(F)c2)[C@H](O)C(=O)N2CC(F)(F)C(C)(C)[C@H]2C(=O)NCC(F)(F)F)c1 | < 0.1 | 14 | –
Cc1c(O)cccc1C(=O)N[C@@H](Cc1cccc(F)c1)[C@H](O)C(=O)N1CC(F)(F)C(C)[C@H]1C(=O)NCC(F)(F)F (some centres unmarked) | < 0.1 | 10 | –
COC[C@H](C)NC(=O)[C@H]1N(C(=O)[C@@H](O)[C@H](Cc2cccc(F)c2)NC(=O)c2cccc(O)c2C)CC(F)(F)C1(C)C | < 0.1 | 100 | –
Cc1c(O)cccc1C(=O)N[C@@H](Cc1ccccc1)[C@H](O)C(=O)N1CC(F)(F)C(C)(C)[C@H]1C(=O)NCc1ccncc1 | < 0.1 | 130 | –
Cc1cc(O)c(C)c(C(=O)N[C@@H](Cc2ccccc2)[C@H](O)C(=O)N2CC(F)(F)C(C)(C)[C@H]2C(=O)NCc2ccncc2)c1 | 0.26 | 110 | –
CCCNC(=O)[C@H]1N(C(=O)[C@@H](O)[C@H](Cc2cccc(F)c2)NC(=O)c2cc(C)cc(O)c2C)CC(F)(F)C1(C)C | < 0.1 | 14 | –
Cc1c(O)cccc1C(=O)N[C@@H](Cc1ccccc1)[C@H](O)C(=O)N1CC(F)(F)C(C)(C)[C@H]1C(=O)NCC(C)(C)C | < 0.1 | 4.7 | –
Cc1c(O)cccc1C(=O)N[C@@H](Cc1ccccc1)[C@H](O)C(=O)N1CC(F)(F)C(C)(C)[C@H]1C(=O)NCc1ccccc1F | < 0.1 | 16 | –
C=CCNC(=O)[C@H]1N(C(=O)[C@@H](O)[C@H](Cc2ccccc2)NC(=O)c2cccc(O)c2C)CC(O)C1(C)C (some centres unmarked) | 3.6 | 470 | –
Cc1c(O)cccc1C(=O)N[C@@H](Cc1ccccc1)[C@H](O)C(=O)N1CC(O)C(C)(C)[C@H]1C(=O)NCC(C)C (some centres unmarked) | 0.7 | 450 | –
Cc1ccccc1CNC(=O)[C@H]1N(C(=O)[C@@H](O)[C@H](Cc2ccccc2)NC(=O)c2cccc(O)c2C)CC(O)C1(C)C (some centres unmarked) | < 0.1 | 140 | –
COC1CN(C(=O)[C@@H](O)[C@H](Cc2ccccc2)NC(=O)c2cccc(O)c2C)[C@H](C(=O)NCc2ccccc2F)C1(C)C (some centres unmarked) | 0.34 | 1000 | –
Cc1cc(O)c(C)c(C(=O)N[C@@H](Cc2ccccc2)[C@H](O)C(=O)N2CC(C)(O)C(C)(C)[C@H]2C(=O)NCc2ccccc2C)c1 (some centres unmarked) | < 0.1 | 12 | –
Cc1ccccc1CNC(=O)[C@H]1N(C(=O)[C@@H](O)[C@H](Cc2ccccc2)NC(=O)c2cccc(O)c2C)CC(C)(O)C1(C)C (some centres unmarked) | < 0.1 | 33 | –
CCCNC(=O)[C@H]1N(C(=O)[C@@H](O)[C@H](Cc2ccccc2)NC(=O)c2cc(C)cc(O)c2C)CC(F)(F)C1(C)C [Example D14, (S)-4,4-Difluoro-1-1-[(2S,3S)-2-hydroxy-3-(3-hydroxy-2,5-dimethyl-benzoylamino)-4-phenyl-butyryl]-3,3-dimethyl-pyrrolidine-2-carboxylic acid propylamide] | – | – | 9
Cc1cc(O)c(C)c(C(=O)N[C@@H](Cc2ccccc2)[C@H](O)C(=O)N2CC(F)(F)C(C)(C)[C@H]2C(=O)NCC(C)C)c1 [Example D15, (S)-4,4-Difluoro-1-1-[(2S,3S)-2-hydroxy-3-(3-hydroxy-2,5-dimethyl-benzoylamino)-4-phenyl-butyryl]-3,3-dimethyl-pyrrolidine-2-carboxylic acid isobutyl-amide] | – | – | 11
